This note sets out measurements from PubChem BioAssay AID1259407 (Chemical Carcinogenesis Research Information System (CCRIS), 2018).

Structures are written as SMILES. Activity calls are given as the source filed them. The rule behind the calls is not given here.

The test system of the data set is CCRIS mutagenicity, Ames/micronucleus/aberration tests. Description: CCRIS mutagenicity studies.
The mark [1] stands for this setting: Test System: AMES SALMONELLA TYPHIMURIUM, Strain/Indicator: TA98, Metabolic Activation: NONE, Method: PREINCUBATION

Regarding `COP(=S)(OC)SCC(=O)N(C)C=O`, the mutagenic call (Test System: AMES SALMONELLA TYPHIMURIUM, Strain/Indicator: TA97A, Metabolic Activation: NONE, Method: STANDARD PLATE) is “inactive; negative”; the mutagenic call (Test System: AMES SALMONELLA TYPHIMURIUM, Strain/Indicator: TA97A, Metabolic Activation: PLANT, HOMOGENATE, S-14, Method: STANDARD PLATE) was “inactive; negative”; the mutagenic call (Test System: AMES SALMONELLA TYPHIMURIUM, Strain/Indicator: TA97A, Metabolic Activation: S-9, Method: STANDARD PLATE) was “inactive; negative”; the mutagenic call (Test System: AMES SALMONELLA TYPHIMURIUM, Strain/Indicator: TA98, Metabolic Activation: NONE, Method: STANDARD PLATE) was “inactive; negative”; the mutagenic call (Test System: AMES SALMONELLA TYPHIMURIUM, Strain/Indicator: TA98, Metabolic Activation: PLANT, HOMOGENATE, S-14, Method: STANDARD PLATE) is “inactive; negative”; the mutagenic call (Test System: AMES SALMONELLA TYPHIMURIUM, Strain/Indicator: TA98, Metabolic Activation: S-9, Method: STANDARD PLATE) is “inactive; negative”. Besides, the mutagenic call (Test System: AMES SALMONELLA TYPHIMURIUM, Strain/Indicator: TA100, Metabolic Activation: NONE, Method: STANDARD PLATE) was “inactive; negative”; the mutagenic call (Test System: AMES SALMONELLA TYPHIMURIUM, Strain/Indicator: TA100, Metabolic Activation: PLANT, HOMOGENATE, S-14, Method: STANDARD PLATE) was “inactive; negative”; the mutagenic call (Test System: AMES SALMONELLA TYPHIMURIUM, Strain/Indicator: TA100, Metabolic Activation: S-9, Method: STANDARD PLATE) was “inactive; negative”; the mutagenic call (Test System: AMES SALMONELLA TYPHIMURIUM, Strain/Indicator: TA1535, Metabolic Activation: NONE, Method: STANDARD PLATE) was “inactive; negative”; the mutagenic call (Test System: AMES SALMONELLA TYPHIMURIUM, Strain/Indicator: TA1535, Metabolic Activation: PLANT, HOMOGENATE, S-14, Method: STANDARD PLATE) was “inactive; negative”; the mutagenic call (Test System: AMES SALMONELLA TYPHIMURIUM, Strain/Indicator: TA1535, Metabolic Activation: S-9, Method: STANDARD PLATE) is “inactive; negative”.
Regarding `Cc1ccc2ccc3cc4ccccc4cc3c2c1`, the mutagenic call was “inactive; negative” (Test System: AMES SALMONELLA TYPHIMURIUM, Strain/Indicator: TA100, Metabolic Activation: RAT, INTACT HEPATOCYTES, AROCLOR 1254, Method: PREINCUBATION); “active; positive” (Test System: AMES SALMONELLA TYPHIMURIUM, Strain/Indicator: TA100, Metabolic Activation: RAT, NADPH-FORTIFIED HOMOGENIZED HEPATOCYTES, AROCLOR 1254, Method: PREINCUBATION); “active; positive” (Test System: AMES SALMONELLA TYPHIMURIUM, Strain/Indicator: TA100, Metabolic Activation: RAT, SONICATED HEPATOCYTES, AROCLOR 1254, Method: PREINCUBATION).
On to `C/C(=C(\CCOC(=O)c1ccccc1)SC(=O)c1ccccc1)N(C=O)Cc1cnc(C)nc1N`, for which the mutagenic call runs as follows: (Test System: AMES SALMONELLA TYPHIMURIUM, Strain/Indicator: TA97, Metabolic Activation: NONE, Method: PREINCUBATION) “inactive; negative”; (Test System: AMES SALMONELLA TYPHIMURIUM, Strain/Indicator: TA97, Metabolic Activation: RAT, LIVER, S-9, AROCLOR 1254, Method: PREINCUBATION) “inactive; negative”; (Test System: AMES SALMONELLA TYPHIMURIUM, Strain/Indicator: TA102, Metabolic Activation: NONE, Method: PREINCUBATION) “inactive; negative”; (Test System: AMES SALMONELLA TYPHIMURIUM, Strain/Indicator: TA102, Metabolic Activation: RAT, LIVER, S-9, AROCLOR 1254, Method: PREINCUBATION) “inactive; negative”.
Regarding `Cc1cccn2c1nc1ccc(NO)nc12`, the mutagenic call reads like this: under setting [1], “active; positive”; (Test System: AMES SALMONELLA TYPHIMURIUM, Strain/Indicator: YG1020, Metabolic Activation: NONE, Method: PREINCUBATION) “active; positive”; (Test System: AMES SALMONELLA TYPHIMURIUM, Strain/Indicator: YG1021, Metabolic Activation: NONE, Method: PREINCUBATION) “active; positive”; (Test System: AMES SALMONELLA TYPHIMURIUM, Strain/Indicator: YG1024, Metabolic Activation: NONE, Method: PREINCUBATION) “active; positive”; (Test System: AMES SALMONELLA TYPHIMURIUM, Strain/Indicator: YG1025, Metabolic Activation: NONE, Method: PREINCUBATION) “inactive; negative”; (Test System: AMES SALMONELLA TYPHIMURIUM, Strain/Indicator: YG1029, Metabolic Activation: NONE, Method: PREINCUBATION) “active; positive”. For the same compound, under “Test System: AMES SALMONELLA TYPHIMURIUM, Strain/Indicator: YG1041, Metabolic Activation: NONE, Method: PREINCUBATION”, the mutagenic call is “active; positive”.
`c1ccc2c(c1)-c1c(ccc3ccccc13)[C@H]1N[C@@H]21`: the mutagenic call reads like this: (Test System: AMES SALMONELLA TYPHIMURIUM, Strain/Indicator: TA98, Metabolic Activation: NONE, Method: PREINCUBATION (KCL-CONTAINING MEDIUM)) “active; positive”; (Test System: AMES SALMONELLA TYPHIMURIUM, Strain/Indicator: TA98, Metabolic Activation: NONE, Method: PREINCUBATION (KCL-FREE MEDIUM)) “active; positive”; (Test System: AMES SALMONELLA TYPHIMURIUM, Strain/Indicator: TA100, Metabolic Activation: NONE, Method: PREINCUBATION (KCL-CONTAINING MEDIUM)) “active; positive”; (Test System: AMES SALMONELLA TYPHIMURIUM, Strain/Indicator: TA100, Metabolic Activation: NONE, Method: PREINCUBATION (KCL-FREE MEDIUM)) “active; positive”.
Consider `CC(C)(C)N`, for which the mutagenic call reads like this: (Test System: AMES SALMONELLA TYPHIMURIUM, Strain/Indicator: TA98, Metabolic Activation: HAMSTER, LIVER, S-9, AROCLOR 1254 (10%), Method: PREINCUBATION) “inactive; negative”; under setting [1], “inactive; negative”; (Test System: AMES SALMONELLA TYPHIMURIUM, Strain/Indicator: TA98, Metabolic Activation: RAT LIVER S-9, PHENOBARBITAL AND BETA-NAPHTHOFLAVONE, Method: PREINCUBATION) “inactive; negative”; (Test System: AMES SALMONELLA TYPHIMURIUM, Strain/Indicator: TA98, Metabolic Activation: RAT, LIVER, S-9, AROCLOR 1254 (10%), Method: PREINCUBATION) “inactive; negative”; (Test System: AMES SALMONELLA TYPHIMURIUM, Strain/Indicator: TA100, Metabolic Activation: HAMSTER, LIVER, S-9, AROCLOR 1254 (10%), Method: PREINCUBATION) “inactive; negative”; (Test System: AMES SALMONELLA TYPHIMURIUM, Strain/Indicator: TA100, Metabolic Activation: NONE, Method: PREINCUBATION) “inactive; negative”. Moreover, the mutagenic call is, setting by setting: (Test System: AMES SALMONELLA TYPHIMURIUM, Strain/Indicator: TA100, Metabolic Activation: RAT LIVER S-9, PHENOBARBITAL AND BETA-NAPHTHOFLAVONE, Method: PREINCUBATION) “inactive; negative”; (Test System: AMES SALMONELLA TYPHIMURIUM, Strain/Indicator: TA100, Metabolic Activation: RAT, LIVER, S-9, AROCLOR 1254 (10%), Method: PREINCUBATION) “inactive; negative”; (Test System: AMES SALMONELLA TYPHIMURIUM, Strain/Indicator: TA1535, Metabolic Activation: HAMSTER, LIVER, S-9, AROCLOR 1254 (10%), Method: PREINCUBATION) “inactive; negative”; (Test System: AMES SALMONELLA TYPHIMURIUM, Strain/Indicator: TA1535, Metabolic Activation: NONE, Method: PREINCUBATION) “inactive; negative”; (Test System: AMES SALMONELLA TYPHIMURIUM, Strain/Indicator: TA1535, Metabolic Activation: RAT LIVER S-9, PHENOBARBITAL AND BETA-NAPHTHOFLAVONE, Method: PREINCUBATION) “inactive; negative”; (Test System: AMES SALMONELLA TYPHIMURIUM, Strain/Indicator: TA1535, Metabolic Activation: RAT, LIVER, S-9, AROCLOR 1254 (10%), Method: PREINCUBATION) “inactive; negative”. For the same compound, the mutagenic call by setting is: (Test System: AMES SALMONELLA TYPHIMURIUM, Strain/Indicator: TA1537, Metabolic Activation: HAMSTER, LIVER, S-9, AROCLOR 1254 (10%), Method: PREINCUBATION) “inactive; negative”; (Test System: AMES SALMONELLA TYPHIMURIUM, Strain/Indicator: TA1537, Metabolic Activation: NONE, Method: PREINCUBATION) “inactive; negative”; (Test System: AMES SALMONELLA TYPHIMURIUM, Strain/Indicator: TA1537, Metabolic Activation: RAT LIVER S-9, PHENOBARBITAL AND BETA-NAPHTHOFLAVONE, Method: PREINCUBATION) “inactive; negative”; (Test System: AMES SALMONELLA TYPHIMURIUM, Strain/Indicator: TA1537, Metabolic Activation: RAT, LIVER, S-9, AROCLOR 1254 (10%), Method: PREINCUBATION) “inactive; negative”; (Test System: E.COLI, Strain/Indicator: WP2UVRA/PKM101, Metabolic Activation: NONE, Method: PREINCUBATION) “inactive; negative”; (Test System: E.COLI, Strain/Indicator: WP2UVRA/PKM101, Metabolic Activation: RAT LIVER S-9, PHENOBARBITAL AND BETA-NAPHTHOFLAVONE, Method: PREINCUBATION) “inactive; negative”.
